In ChEMBL document CHEMBL1125674, “Crystal, solution, and molecular modeling structural properties and muscarinic antagonist activity of azaprophen” (J Med Chem, 1991):

Assays:
[1] = Inhibition of [3H]QNB binding towards muscarinic acetylcholine receptor in rat heart
[2] = (§1) Inhibition of [3H]pirenzepine binding towards muscarinic acetylcholine receptor in rat brain.
[3] = target: T1, Muscarinic acetylcholine receptors; M1 & M2 (Homo sapiens, UniProt P11229+P08172); assay: Inhibition of [3H]QNB binding towards muscarinic acetylcholine receptor in guinea pig ileum.; assay type: tissue-based, Cavia porcellus; conditions: target entry is the homologue from another species
T1 sequence (P11229 whole entry): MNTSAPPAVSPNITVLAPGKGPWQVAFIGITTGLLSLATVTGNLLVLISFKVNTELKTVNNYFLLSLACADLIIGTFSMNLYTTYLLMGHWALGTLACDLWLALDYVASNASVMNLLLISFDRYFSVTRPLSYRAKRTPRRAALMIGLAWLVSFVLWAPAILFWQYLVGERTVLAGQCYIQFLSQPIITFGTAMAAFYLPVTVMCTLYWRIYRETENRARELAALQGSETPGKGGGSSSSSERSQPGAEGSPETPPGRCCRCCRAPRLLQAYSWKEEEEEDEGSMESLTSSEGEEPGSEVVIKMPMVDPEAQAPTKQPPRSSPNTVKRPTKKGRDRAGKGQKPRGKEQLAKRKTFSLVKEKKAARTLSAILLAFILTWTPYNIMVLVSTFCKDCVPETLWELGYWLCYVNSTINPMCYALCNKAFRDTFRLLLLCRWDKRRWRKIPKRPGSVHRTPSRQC
T1 sequence (P08172 whole entry): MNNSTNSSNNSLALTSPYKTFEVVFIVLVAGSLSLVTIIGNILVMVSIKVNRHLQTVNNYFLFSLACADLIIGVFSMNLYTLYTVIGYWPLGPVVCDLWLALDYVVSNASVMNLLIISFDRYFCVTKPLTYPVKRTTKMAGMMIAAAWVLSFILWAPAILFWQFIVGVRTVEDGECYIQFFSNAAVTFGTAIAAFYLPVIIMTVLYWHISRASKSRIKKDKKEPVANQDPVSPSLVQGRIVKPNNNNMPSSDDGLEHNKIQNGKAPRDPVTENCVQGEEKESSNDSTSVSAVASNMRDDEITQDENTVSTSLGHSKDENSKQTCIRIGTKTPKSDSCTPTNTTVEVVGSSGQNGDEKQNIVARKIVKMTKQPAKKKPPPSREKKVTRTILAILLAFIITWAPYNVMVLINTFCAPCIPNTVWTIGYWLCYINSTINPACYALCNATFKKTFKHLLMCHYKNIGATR

[4] = Inhibition of [3H]QNB binding towards muscarinic acetylcholine receptor in rat brain; assay type: tissue-based
[5] = as §1; assay type: tissue-based
[6] = target: T2, Muscarinic acetylcholine receptor M1 (Homo sapiens, UniProt P11229); assay: Inhibition of [3H]QNB binding to CHO cells bearing transfected muscarinic acetylcholine receptor M1; assay type: cell-based, Cricetulus griseus
T2 sequence (P11229 whole entry): T1 sequence (P11229 whole entry)

[7] = target: Muscarinic acetylcholine receptor M3 (Homo sapiens, UniProt P20309); assay: Inhibition of [3H]QNB binding to CHO cells bearing transfected muscarinic acetylcholine receptor M3; assay type: cell-based, Cricetulus griseus
Sequence of Muscarinic acetylcholine receptor M3 (P20309 whole entry, looked up): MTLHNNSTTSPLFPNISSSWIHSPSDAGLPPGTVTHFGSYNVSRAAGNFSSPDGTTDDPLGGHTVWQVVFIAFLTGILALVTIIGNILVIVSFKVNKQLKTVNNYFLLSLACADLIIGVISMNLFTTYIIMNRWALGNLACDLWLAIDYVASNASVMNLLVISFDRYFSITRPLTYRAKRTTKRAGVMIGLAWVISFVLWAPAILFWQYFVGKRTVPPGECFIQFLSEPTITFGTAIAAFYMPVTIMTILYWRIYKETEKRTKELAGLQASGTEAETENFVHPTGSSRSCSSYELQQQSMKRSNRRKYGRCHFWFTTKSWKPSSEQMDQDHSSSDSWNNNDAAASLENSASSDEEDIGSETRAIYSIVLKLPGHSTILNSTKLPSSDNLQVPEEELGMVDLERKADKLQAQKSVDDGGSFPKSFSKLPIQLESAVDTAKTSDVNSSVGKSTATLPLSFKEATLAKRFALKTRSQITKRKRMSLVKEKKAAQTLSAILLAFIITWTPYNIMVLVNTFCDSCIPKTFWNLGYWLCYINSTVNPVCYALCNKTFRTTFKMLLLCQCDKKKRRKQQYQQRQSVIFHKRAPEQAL

Row | SMILES | Ki [1] [nM] | Ki [2] [nM] | Ki [3] [nM] | Ki [4] [nM] | Ki [5] [nM] | Ki [6] [nM] | Ki [7] [nM]
1 | CN1[C@@H]2CC[C@H]1C[C@@H](OC(=O)C(CO)c1ccccc1)C2 (stereo partly drawn) [ATROPINE] | 0.545 | 0.545 | – | – | – | – | –
2 | CN1CC2CC(OC(=O)C(C)(c3ccccc3)c3ccccc3)CC1C2 (stereo not drawn) [AZAPROPHEN] | 0.13 | – | 0.279 | 0.118 | 0.196 | 0.088 | 0.472
